Results taken from US10681909B2, “Herbicidal triazoles” (FMC Corporation, priority 2014, dated 2020).

How the values were obtained:
velvetleaf = test: Test A preemergence; format: in vivo, Abutilon theophrasti; settings: Abutilon theophrasti, pre-emergence, 240 h, 0 to 100 scale (0 no effect, 100 complete control), read-out: Plant response rating, Velvetleaf; for pest or weed control at 125 g/ha: 125 g ai/ha; for pest or weed control at 500 g/ha: 500 g ai/ha, approx. 10 d
How it was run: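 Loam/sand soil mix; compound in non-phytotoxic solvent + surfactant. Pre: directed soil spray right after planting seed. Post: potted plants 2–10 cm, 1–2 leaf stage, sprayed with same formulation.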

ragweed = test: Test A preemergence; format: in vivo, Ambrosia elatior; settings: 0 to 100 scale (0 no effect, 100 complete control)
How it was run: (§1)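 Visual injury score, 0 (no effect) to 100 (complete control), taken about 10 d after treatment against untreated greenhouse controls. Chemicals formulated in non-phytotoxic solvent plus surfactant; preemergence by directed soil spray onto sown loam/sand, postemergence onto one- to two-leaf plants.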

kochia = test: Test A postemergence; format: in vivo, Kochia scoparia; settings: 0 to 100 scale (0 no effect, 100 complete control), approx. 10 d
How it was run: as §1

galium [1] = test: Test D preemergence; format: in vivo, Galium aparine; settings: scale 0 to 100
Excerpt: (§2) Seeds of plant species selected from bluegrass (annual bluegrass, Poa annua), blackgrass (Alopecurus myosuroides), canarygrass (Phalaris minor), chickweed (common chickweed, Stellaria media), galium (catchweed bedstraw, Galium aparine), bromegrass, down (downy bromegrass, Bromus tectorum), Russian thistle (Salsola kali), field poppy (Papaver rhoeas), field violet (Viola arvensis), foxtail, green (green foxtail, Setaria viridis), deadnettle (henbit deadnettle, Lamium amplexicaule), ryegrass, Ital. (Italian ryegrass, Lolium multiflorum), kochia (Kochia scoparia), lambsquarters (Chenopodium album), oilseed rape (Brassica napus), pigweed (Amaranthus retroflexus), chamomile (scentless chamomile, Matricaria inodora), speedwell (bird's-eye speedwell, Veronica persica), barley, spring (spring barley, Hordeum vulgare), wheat, spring (spring wheat, Triticum aestivum), buckwheat, wild (wild buckwheat, Polygonum convolvulus), wild mustard (Sinapis arvensis), oat, wild (wild oat, Avena fatua), radish, wild (wild radish, Raphanus raphanistrum), […]), barley, winter (winter barley, Hordeum vulgare), and wheat, winter (winter wheat, Triticum aestivum) were planted into a silt loam soil and treated preemergence with test chemicals formulated in a non-phytotoxic solvent mixture which included a surfactant. At the same time, these species were planted in pots containing Sunshine Redi-Earth® planting medium comprising spaghnum peat moss, vermiculite, starter nutrients and dolomitic limestone and treated with postemergence applications of the test chemicals formulated in the same manner. Plants ranged in height from 2 to 18 cm (1- to 4-leaf stage). Treated plants and controls were maintained in a controlled growth environment for 14 to 21 d after which time all species were compared to controls and visually evaluated. […] A dash (-) response means no test result.

foxtail, green = test: Test D preemergence; format: in vivo, Setaria viridis; settings: scale 0 to 100
Excerpt: as §2

deadnettle = test: Test D preemergence; format: in vivo, Lamium amplexicaule; settings: scale 0 to 100
Excerpt: as §2

chamomile = test: Test D preemergence; format: in vivo, Matricaria inodora; settings: scale 0 to 100
Excerpt: as §2

radish, wild [2] = test: Test D preemergence; format: in vivo, Raphanus raphanistrum; settings: scale 0 to 100
Excerpt: as §2

galium [3] = test: Test D postemergence; format: in vivo, Galium aparine; settings: scale 0 to 100
Excerpt: as §2

pigweed = test: Test D postemergence; format: in vivo, Amaranthus retroflexus; settings: scale 0 to 100
Excerpt: as §2

speedwell = test: Test D postemergence; format: in vivo, Veronica persica; settings: scale 0 to 100
Excerpt: as §2

radish, wild [4] = test: Test D postemergence; format: in vivo, Raphanus raphanistrum; settings: scale 0 to 100
Excerpt: as §2

SMILES: CCn1nc(-c2ccc(F)cc2)nc1C(=O)c1ccnc(C(F)(F)F)c1 [Compound 19, [1-ethyl-3-(4-fluorophenyl)-1H-1,2,4-triazol-5-yl][2-(trifluoromethyl)-4-pyridinyl]methanone]
- pest or weed control at 125 g/ha (velvetleaf): 0%
- pest or weed control at 500 g/ha (velvetleaf): 0%

SMILES: CCCc1nc(-c2ccc(F)cc2)nn1Cc1ccnc(C(F)(F)F)c1 [Compound 6, 4-[[3-(4-fluorophenyl)-5-propyl-1H-1,2,4-triazol-1-yl]methyl]-2-(trifluoromethyl)pyridine]
- pest or weed control at 125 g/ha (velvetleaf): 40%
- pest or weed control at 500 g/ha (velvetleaf): 100%

SMILES: CCOc1nc(-c2ccc(Cl)cc2)nn1Cc1ccnc(C(F)(F)F)c1 [Compound 26]
- Plant response rating, Ragweed (ragweed; 31 g ai/ha): 60
- Plant response rating, Ragweed (ragweed; 125 g ai/ha): 90
- Plant response rating, Kochia (kochia; 31 g ai/ha): 80
- Plant response rating, Kochia (kochia; 125 g ai/ha): 90

SMILES: CCOc1nc(-c2ccc(F)cc2)nn1Cc1ccnc(C(F)(F)F)c1 [Compound 8, 4-[[5-ethoxy-3-(4-fluorophenyl)-1H-1,2,4-triazol-1-yl]methyl]-2-(trifluoromethyl)pyridine]
- pest or weed control at 125 g/ha (velvetleaf): 70%
- pest or weed control at 500 g/ha (velvetleaf): 90%
- Plant response rating: Galium (galium [1]; 62 g ai/ha): 35
- Plant response rating: Galium (galium [1]; 125 g ai/ha): 50
- Plant response rating: Galium (galium [1]; 250 g ai/ha): 70
- Plant response rating: Foxtail, Green (foxtail, green; 62 g ai/ha): 100
- Plant response rating: Foxtail, Green (foxtail, green; 125 g ai/ha): 100
- Plant response rating: Foxtail, Green (foxtail, green; 250 g ai/ha): 100
- Plant response rating: Deadnettle (deadnettle; 31 g ai/ha): 100
- Plant response rating: Deadnettle (deadnettle; 62 g ai/ha): 100
- Plant response rating: Deadnettle (deadnettle; 125 g ai/ha): 100
- Plant response rating: Deadnettle (deadnettle; 250 g ai/ha): 100
- Plant response rating: Chamomile (chamomile; 31 g ai/ha): 10
- Plant response rating: Chamomile (chamomile; 62 g ai/ha): 30
- Plant response rating: Chamomile (chamomile; 125 g ai/ha): 100
- Plant response rating: Chamomile (chamomile; 250 g ai/ha): 100
- Plant response rating: Radish, Wild (radish, wild [2]; 62 g ai/ha): 60
- Plant response rating: Radish, Wild (radish, wild [2]; 125 g ai/ha): 100
- Plant response rating: Radish, Wild (radish, wild [2]; 250 g ai/ha): 100
- Plant response rating: Galium (galium [3]; 31 g ai/ha): 75
- Plant response rating: Galium (galium [3]; 62 g ai/ha): 90
- Plant response rating: Galium (galium [3]; 125 g ai/ha): 95
- Plant response rating: Galium (galium [3]; 250 g ai/ha): 95
- Plant response rating: Pigweed (pigweed; 31 g ai/ha): 95
- Plant response rating: Pigweed (pigweed; 62 g ai/ha): 95
- Plant response rating: Pigweed (pigweed; 125 g ai/ha): 100
- Plant response rating: Pigweed (pigweed; 250 g ai/ha): 95
- Plant response rating: Speedwell (speedwell; 31 g ai/ha): 100
- Plant response rating: Speedwell (speedwell; 62 g ai/ha): 100
- Plant response rating: Speedwell (speedwell; 125 g ai/ha): 100
- Plant response rating: Speedwell (speedwell; 250 g ai/ha): 100
- Plant response rating: Radish, Wild (radish, wild [4]; 31 g ai/ha): 80
- Plant response rating: Radish, Wild (radish, wild [4]; 62 g ai/ha): 100
- Plant response rating: Radish, Wild (radish, wild [4]; 125 g ai/ha): 100
- Plant response rating: Radish, Wild (radish, wild [4]; 250 g ai/ha): 100

SMILES: COc1nc(-c2ccc(C(F)(F)F)cc2)nn1Cc1ccnc(C(F)(F)F)c1 [Compound 25]
- Plant response rating, Ragweed (ragweed; 31 g ai/ha): 10
- Plant response rating, Ragweed (ragweed; 125 g ai/ha): 20
- Plant response rating, Kochia (kochia; 31 g ai/ha): 90
- Plant response rating, Kochia (kochia; 125 g ai/ha): 90

SMILES: CS(=O)(=O)c1nc(-c2ccc(F)cc2)nn1Cc1ccnc(C(F)(F)F)c1 [Compound 29, 4-[[3-(4-fluorophenyl)-5-(methylsulfonyl)-1H-1,2,4-triazole-1-yl]methyl]-2-(trifluoromethyl)pyridine]
- pest or weed control at 125 g/ha (velvetleaf): 0%
- pest or weed control at 500 g/ha (velvetleaf): 0%

SMILES: CCn1nc(-c2ccc(F)cc2)nc1C(O)c1ccnc(C(F)(F)F)c1 (stereo not drawn) [Compound 15, α-[1-Ethyl-3-(4-fluorophenyl)-1H-1,2,4-triazol-5-yl]-2-(trifluoromethyl)-4-pyridinemethanol]
- pest or weed control at 125 g/ha (velvetleaf): 0%
- pest or weed control at 500 g/ha (velvetleaf): 0%

SMILES: Cn1nc(-c2ccc(F)cc2)nc1Oc1cccc(C(F)(F)F)c1 [Compound 5, 3-(4-fluorophenyl)-1-methyl-5-[3-(trifluoromethyl)phenoxy]-1H-1,2,4-triazole]
- pest or weed control at 125 g/ha (velvetleaf): 0%
- pest or weed control at 500 g/ha (velvetleaf): 0%

SMILES: COc1nc(-c2ccc(F)cc2)nn1Cc1ccnc(C(F)(F)F)c1 [Compound 9, 4-[[3-(4-fluorophenyl)-5-methoxy-1H-1,2,4-triazol-1-yl]methyl]-2-(trifluoromethyl)pyridine]
- pest or weed control at 125 g/ha (velvetleaf): 0%
- pest or weed control at 500 g/ha (velvetleaf): 80%

SMILES: COc1nc(-c2ccccc2)nn1Cc1ccnc(C(F)(F)F)c1 [Compound 32]
- Plant response rating, Ragweed (ragweed; 125 g ai/ha): 0
- Plant response rating, Ragweed (ragweed; 500 g ai/ha): 40
- Plant response rating, Kochia (kochia; 125 g ai/ha): 80
- Plant response rating, Kochia (kochia; 500 g ai/ha): 90

SMILES: CCc1nc(-c2ccc(C(F)(F)F)cc2)nn1Cc1ccnc(C(F)(F)F)c1 [Compound 1, 4-[[5-ethyl-3-[4-(trifluoromethyl)phenyl]-1H-1,2,4-triazol-1-yl]methyl]-2-(trifluoromethyl)pyridine]
- pest or weed control at 125 g/ha (velvetleaf): 30%
- pest or weed control at 500 g/ha (velvetleaf): 100%
- Plant response rating: Galium (galium [1]; 125 g ai/ha): 60
- Plant response rating: Galium (galium [1]; 250 g ai/ha): 100
- Plant response rating: Foxtail, Green (foxtail, green; 62 g ai/ha): 100
- Plant response rating: Foxtail, Green (foxtail, green; 125 g ai/ha): 100
- Plant response rating: Foxtail, Green (foxtail, green; 250 g ai/ha): 100
- Plant response rating: Deadnettle (deadnettle; 31 g ai/ha): 100
- Plant response rating: Deadnettle (deadnettle; 62 g ai/ha): 100
- Plant response rating: Deadnettle (deadnettle; 125 g ai/ha): 100
- Plant response rating: Deadnettle (deadnettle; 250 g ai/ha): 100
- Plant response rating: Chamomile (chamomile; 31 g ai/ha): 0
- Plant response rating: Chamomile (chamomile; 62 g ai/ha): 20
- Plant response rating: Chamomile (chamomile; 125 g ai/ha): 80
- Plant response rating: Chamomile (chamomile; 250 g ai/ha): 100
- Plant response rating: Radish, Wild (radish, wild [2]; 62 g ai/ha): 100
- Plant response rating: Radish, Wild (radish, wild [2]; 125 g ai/ha): 100
- Plant response rating: Radish, Wild (radish, wild [2]; 250 g ai/ha): 100
- Plant response rating: Galium (galium [3]; 31 g ai/ha): 70
- Plant response rating: Galium (galium [3]; 62 g ai/ha): 70
- Plant response rating: Galium (galium [3]; 125 g ai/ha): 90
- Plant response rating: Galium (galium [3]; 250 g ai/ha): 90
- Plant response rating: Pigweed (pigweed; 31 g ai/ha): 80
- Plant response rating: Pigweed (pigweed; 62 g ai/ha): 85
- Plant response rating: Pigweed (pigweed; 125 g ai/ha): 85
- Plant response rating: Pigweed (pigweed; 250 g ai/ha): 85
- Plant response rating: Speedwell (speedwell; 31 g ai/ha): 100
- Plant response rating: Speedwell (speedwell; 62 g ai/ha): 100
- Plant response rating: Speedwell (speedwell; 125 g ai/ha): 100
- Plant response rating: Speedwell (speedwell; 250 g ai/ha): 100
- Plant response rating: Radish, Wild (radish, wild [4]; 31 g ai/ha): 75
- Plant response rating: Radish, Wild (radish, wild [4]; 62 g ai/ha): 100
- Plant response rating: Radish, Wild (radish, wild [4]; 125 g ai/ha): 95
- Plant response rating: Radish, Wild (radish, wild [4]; 250 g ai/ha): 95

SMILES: CCCOc1nc(-c2ccccc2)nn1Cc1ccnc(C(F)(F)F)c1 [Compound 33]
- Plant response rating, Ragweed (ragweed; 125 g ai/ha): 20
- Plant response rating, Ragweed (ragweed; 500 g ai/ha): 30
- Plant response rating, Kochia (kochia; 125 g ai/ha): 90
- Plant response rating, Kochia (kochia; 500 g ai/ha): 90

SMILES: Cn1nc(-c2ccc(F)cc2)nc1C(O)c1ccnc(C(F)(F)F)c1 (stereo not drawn) [Compound 14, α-[3-(4-fluorophenyl)-1-methyl-1H-1,2,4-triazol-5-yl]-2-(trifluoromethyl)-4-pyridinemethanol]
- pest or weed control at 125 g/ha (velvetleaf): 0%
- pest or weed control at 500 g/ha (velvetleaf): 0%

SMILES: CCCn1nc(-c2ccc(F)cc2)nc1Cc1ccnc(C(F)(F)F)c1 [Compound 17, 4-[[3-(4-fluorophenyl)-1-propyl-1H-1,2,4-triazol-5-yl]methyl]-2-(trifluoromethyl)pyridine]
- pest or weed control at 125 g/ha (velvetleaf): 90%
- pest or weed control at 500 g/ha (velvetleaf): 100%
